From ChEMBL document CHEMBL3877333, “Bicyclic Ketone Sulfonamide Compounds” (ACS Med Chem Lett, 2017) come the findings set out here.

The structures appear in SMILES notation.

In the assay the target is Sodium channel protein type 9 subunit alpha (Homo sapiens, UniProt Q15858). Nature of the assay: Inhibition of human Nav1.7 expressed in HEK293 cells at holding potential yielding 20 to 50% inactivation measured after 3 mins by patchXpress electrophysiology assay. The assay is classed as cell-based.
Sodium channel protein type 9 subunit alpha, sequence (Q15858 whole entry): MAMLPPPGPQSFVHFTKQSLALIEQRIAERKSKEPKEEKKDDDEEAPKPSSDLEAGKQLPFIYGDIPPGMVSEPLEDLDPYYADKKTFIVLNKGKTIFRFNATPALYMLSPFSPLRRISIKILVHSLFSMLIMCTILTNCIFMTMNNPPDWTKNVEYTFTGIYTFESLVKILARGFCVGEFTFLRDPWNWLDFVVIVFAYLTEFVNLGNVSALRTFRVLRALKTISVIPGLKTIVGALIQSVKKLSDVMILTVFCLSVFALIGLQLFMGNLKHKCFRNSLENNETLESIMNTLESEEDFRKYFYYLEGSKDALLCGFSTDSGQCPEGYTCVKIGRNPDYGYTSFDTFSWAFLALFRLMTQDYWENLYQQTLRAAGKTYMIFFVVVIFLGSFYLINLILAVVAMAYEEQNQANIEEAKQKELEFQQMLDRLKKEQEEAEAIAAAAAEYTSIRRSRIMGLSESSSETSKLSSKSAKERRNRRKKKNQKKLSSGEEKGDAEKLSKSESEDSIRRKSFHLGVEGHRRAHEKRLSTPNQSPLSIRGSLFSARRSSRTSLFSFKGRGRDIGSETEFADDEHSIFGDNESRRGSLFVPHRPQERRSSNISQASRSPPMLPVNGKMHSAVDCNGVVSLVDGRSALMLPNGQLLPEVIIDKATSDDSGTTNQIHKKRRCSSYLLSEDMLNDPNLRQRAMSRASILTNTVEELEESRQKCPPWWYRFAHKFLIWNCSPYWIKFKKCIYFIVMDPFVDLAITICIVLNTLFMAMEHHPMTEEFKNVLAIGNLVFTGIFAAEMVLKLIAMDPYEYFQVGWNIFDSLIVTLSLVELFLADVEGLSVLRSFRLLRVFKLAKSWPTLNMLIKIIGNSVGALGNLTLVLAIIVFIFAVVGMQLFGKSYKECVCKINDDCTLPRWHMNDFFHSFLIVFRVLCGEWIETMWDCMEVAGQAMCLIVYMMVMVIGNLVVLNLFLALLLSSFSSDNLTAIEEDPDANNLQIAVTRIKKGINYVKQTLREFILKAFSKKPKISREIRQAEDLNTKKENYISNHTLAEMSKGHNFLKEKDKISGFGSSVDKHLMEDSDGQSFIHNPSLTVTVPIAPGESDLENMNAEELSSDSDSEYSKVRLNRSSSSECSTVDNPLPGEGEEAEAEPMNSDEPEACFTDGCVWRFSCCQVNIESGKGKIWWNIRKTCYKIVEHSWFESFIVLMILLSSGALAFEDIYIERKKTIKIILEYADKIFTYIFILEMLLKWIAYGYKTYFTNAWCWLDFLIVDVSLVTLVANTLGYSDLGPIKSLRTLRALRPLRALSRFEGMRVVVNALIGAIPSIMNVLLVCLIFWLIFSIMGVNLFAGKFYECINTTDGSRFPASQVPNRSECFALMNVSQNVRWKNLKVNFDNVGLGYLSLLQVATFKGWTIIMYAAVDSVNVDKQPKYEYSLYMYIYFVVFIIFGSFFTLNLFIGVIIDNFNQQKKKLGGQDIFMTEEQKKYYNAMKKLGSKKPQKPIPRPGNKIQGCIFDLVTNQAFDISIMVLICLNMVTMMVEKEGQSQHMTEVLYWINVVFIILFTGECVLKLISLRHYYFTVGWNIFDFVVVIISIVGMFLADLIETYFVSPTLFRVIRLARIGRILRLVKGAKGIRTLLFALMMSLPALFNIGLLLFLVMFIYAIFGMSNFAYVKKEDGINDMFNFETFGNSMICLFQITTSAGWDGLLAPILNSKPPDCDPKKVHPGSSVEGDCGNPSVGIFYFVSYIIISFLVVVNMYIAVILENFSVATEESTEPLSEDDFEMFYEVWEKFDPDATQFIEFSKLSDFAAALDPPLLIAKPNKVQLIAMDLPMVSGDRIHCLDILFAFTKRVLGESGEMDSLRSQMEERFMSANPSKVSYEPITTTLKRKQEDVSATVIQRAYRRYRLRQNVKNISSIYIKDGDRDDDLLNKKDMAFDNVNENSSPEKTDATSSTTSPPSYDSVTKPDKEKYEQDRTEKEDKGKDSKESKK
The IC50 is the point on the concentration scale where inhibition reaches its midpoint. A low value points to greater potency in that assay. Molecule `COc1cc(-c2ccc(F)c(F)c2)c(F)cc1-n1c2c(ccc1=O)CN(S(=O)(=O)Nc1ccon1)CC2` registered an IC50 of 6.7 nM.

`COc1cc(-c2ccc(F)c(F)c2)c(F)cc1-n1c2c(ccc1=O)CN(S(=O)(=O)Nc1cccnn1)CC2` gave an IC50 of 23.7 nM.

`COc1cc(-c2cccc(C(F)(F)F)c2)c(F)cc1-n1c2c(ccc1=O)CN(S(=O)(=O)Nc1ccon1)CC2` yielded an IC50 of 4.7 nM.

For `COc1cc(-c2cc(OC)c(-n3c4c(ccc3=O)CN(S(=O)(=O)Nc3ccon3)CC4)cc2F)ccc1C`, inhibition was half-maximal at 12.3 nM (IC50).

In the case of `COc1cc(-c2cc(F)cc(Cl)c2)c(F)cc1-n1c2c(ccc1=O)CN(S(=O)(=O)Nc1ccon1)CC2`, half-maximal inhibition (IC50) was put at 4.3 nM.

`COc1cc(-c2ccc(Cl)c(C)c2)c(F)cc1-n1c2c(ccc1=O)CN(S(=O)(=O)Nc1cccnn1)CC2` registered an IC50 of 19.6 nM. This IC50 lies about 4.6-fold higher than the previous one.

`COc1cc(-c2cccc(OC(F)F)c2)c(F)cc1-n1c2c(ccc1=O)CN(S(=O)(=O)Nc1ccon1)CC2`: the IC50 was 5.5 nM.
